Data on three compounds can be found in patent publication US7598258B2, “Quinoline derivatives and quinazoline derivatives inhibiting autophosphorylation of macrophage colony stimulating factor receptor” (Kirin Beer Kabushiki Kaisha, priority 2002, dated 2009).

SMILES strings stand for the structures.

One experiment has as its system BAC-1.2F5 cell line. Kind of experiment: Inhibition of M-CSF-dependent cell growth of macrophage-like cell line BAC-1.2F5 (MTS). It counts as cell-based, mouse. The following applies: 72 hr, M-CSF 50 ng/ml, FIG. 1. The procedure:
Macrophage-like cell line BAC-1.2F5 which expresses c-fms as a M-CSF receptor on cell membranes (CLAUDIA M. et al., J. Cell. Physiol., 130, 420-427 (1987), “Isolation and Characterization of a Cloned Growth Factor Dependent Macrophage Cell Line, BAC1.2F5”) was cultured at 37° C. in a DMEM medium containing L-cell supernatant and 10% fetal calf serum (purchased from GIBCO BRL) in a 5% CO2 incubator until about 50 to 70% confluent. The harvested cells were inoculated into wells, each containing a 10% fetal calf serum-containing DMEM medium with human recombinant M-CSF being added thereto to a final concentration of 50 ng/ml, in a 96-well flat-bottom plate at a density of 5.0×10^3 per well, and cultured at 37° C. for 24 hr. A test compound dissolved in dimethyl sulfoxide was then added to each well to a target concentration, and cells were incubated at 37° C. in a 5% CO2 incubator for 72 hr. Thereafter, 20 μl of an MTS reagent (purchased from Promega) was added to each well, followed by incubation at 37° C. in a 5% CO2 incubator for 2 hr. Thereafter, absorbance at 490 nm was measured with a microplate reader. The cell growth rate with the addition of the test compound was determined by presuming the absorbance without the addition of the test compound and with the addition of M-CSF to be 100% cell growth and the absorbance without the addition of the test compound and M-CSF to be 0% cell growth. The concentration of the test compound was varied on several levels, and the cell growth rate in each case was calculated.

In experiment [1] the test system is osteoclast differentiation. Nature of the experiment: Osteoclast differentiation-inducing test by cocultivation of mouse bone marrow cells and osteoblast-like cell line KS483 (TRAP activity). The format is cell-based. The following applies: 6 days coculture with 1,25(OH)2VD3, FIG. 2. Here is the method:
Mouse osteoblast-like cell line KS483 ([…] T. et al., Bone, 19, 429-436 (1996), “Subcloning of Three Osteoblastic Cell with Distinct Differentiation Phenotypes from the Mouse Osteoblastic Cell line KS-4”) was cultured in an α-MEM medium containing a 10% fetal calf serum (purchased from GIBCO BRL) until about 90% confluent. The cells were seeded into wells, each containing the same medium containing a 10% fetal calf serum, in a 48 well flat-bottom plate at a density of 2.0×10^3 per well. […] At the same time, the TRAP activity was evaluated by the measurement of enzyme activity using p-nitrophenylphosphate (SIGMA104 phosphatase substrate; SIGMA; hereinafter referred to as “PNP”). […] After stirring, 50 μl of 0.5 N NaOH was further added, and 100 μl of the reaction solution in each well was dispensed in a 96 well flat-bottom plate, and absorbance at 405 nm was then measured with a microplate reader. For each well, TRAP activity was measured by presuming the absorbance in the case of culture without the addition of the test compound and with the addition of only KS483 and mouse bone marrow cells in the presence of 1,25(OH)2VD3 to 100% TRAP activity and the absorbance without the addition of the test compound and the mouse bone marrow cells to 0% TRAP activity. […]

For experiment [2], the system named is bone metastasis of A375 human melanoma cells. Nature of the experiment: Nude mouse bone metastasis model using human melanoma cells (A375). The format is in vivo, nude mice. The conditions noted are these: oral 40 mg/kg/day (20 mg twice a day), 28 days, p<0.01 vs. vehicle control, FIG. 3. Here is the method: From the next day of the transplantation, for 28 days twice a day, the test compound was orally administered to the treatment group at 40 mg/kg/day, and the medium was orally administered to the control group. On 21 and 28 days after the transplantation, the mice were radiographed. For the images thus obtained, the bone resorption pore area in femora and fibiae attributable to bone metastasis of melanoma in each individual were calculated with an image analysis software (Image Gauge, FUJI FILM) to determine the average value for each group. The drug efficacy was evaluated by comparing the area of the test compound administered group with the area of the control group.

As to `COc1cc(Oc2ccnc3cc(OC)c(OC)cc23)ccc1NC(=O)N[C@@H](C)c1ccc(F)cc1` [Example 17, N-{4-[(6,7-Dimethoxy-4-quinolyl)oxy]-2-methoxyphenyl}-N′-[(1S)-1-(4-fluorophenyl)ethyl]urea], the “inhibition of M-CSF-dependent cell growth of BAC-1.2F5” value (“inhibition … of BAC-1.2F5” for short) in the experiment on BAC-1.2F5 cell line was “concentration-dependent inhibition”.
For `COc1cc(Oc2ccnc3cc(OC)c(OC)cc23)ccc1NC(=O)N[C@H](C)c1ccc(F)cc1` [Example 18, N-{4-[(6,7-Dimethoxy-4-quinolyl)oxy]-2-methoxyphenyl}-N′-[(1R)-1-(4-fluorophenyl)ethyl]urea], in the experiment on BAC-1.2F5 cell line, the “inhibition … of BAC-1.2F5” value is recorded as “concentration-dependent inhibition”.
On to `COc1cc(Oc2ccnc3cc(OC)c(OC)cc23)ccc1NC(=O)NC(C)c1nccs1` (centres unmarked) [Example 74, N-{4-[(6,7-Dimethoxy-4-quinolyl)oxy]-2-methoxyphenyl}-N′-[1-(1,3-thiazol-2-yl)ethyl]urea], for which the “inhibition … of BAC-1.2F5” value with BAC-1.2F5 cell line is recorded as “concentration-dependent inhibition”. In addition, the “inhibition of osteoclast differentiation (TRAP activity)” value in experiment [1] is given as “concentration-dependent inhibition”. The “inhibition of expansion of bone resorption area involved in bone metastasis of melanoma” value in experiment [2] is listed as “inhibiting the expansion of bone resorption area”.
